This is an account of results in patent publication US9623063B2, “Extracts from Ajuga reptans cell lines, their preparation and use” (I.R.B. ISTITUTO DI RICERCHE BIOTECNOLOGICHE S.r.l., priority 2005, dated 2017).

A short description of assay [1]: Metal chelation, spectrophotometric (Fe2+). Type of assay: physicochemical. The source says:
The chelating activities of Ajuga reptans extracts in relation to Fe^2+, Fe^3+, Cu^2+ and Ni^2+ metal ions has been determined by means of spectrophotometric measurements using a Shimadzu 1770 UV spectrophotometer. The activities of chelating agents depends on the association constant (equilibrium) of their reactions with the metals according to the following reaction:
[formula] wherein Keq is the equilibrium constant equal to the ratio of concentrations at equilibrium of a complex and a product of equilibrium concentrations of metal ions and a chelator:
The method used for determining chelating activities is well documented in the literature (Korkina L G, Afarras'er I B. Antioxidant and chelating properties of flavonoids. Adv. Pharmacol., 1997, 38:151-63). The results are expressed as Keq (M^−1) calculated for a pure phenylpropanoid. This way the chelating activity against ferrous (Fe II), ferric (Fe III), copper (Cu II) and nickel ions has been calculated.

Assay [2] has as its target T1, 5 alpha reductase, type II (Homo sapiens, UniProt P31213).
T1 construct: made in house; host or cells: genetically modified yeast
T1 sequence (P31213 1-254): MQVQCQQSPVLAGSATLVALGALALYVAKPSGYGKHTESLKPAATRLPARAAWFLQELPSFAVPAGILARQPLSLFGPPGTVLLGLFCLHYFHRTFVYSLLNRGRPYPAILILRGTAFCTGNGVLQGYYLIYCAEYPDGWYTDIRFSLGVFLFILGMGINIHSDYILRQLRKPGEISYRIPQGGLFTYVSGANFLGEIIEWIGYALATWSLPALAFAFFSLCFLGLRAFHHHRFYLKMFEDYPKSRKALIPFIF
The assay is described as follows: Type II 5 alpha reductase inhibition ([14C] testosterone conversion). Format: biochemical. The text has this:
Determination of the 5 alpha reductase inhibitory activities by Ajuga reptans extracts in comparison to Serenoa repens extracts. Said determination has been performed using enzymes (5 alpha reductase, type I and type II) produced by genetically modified yeast. Enzyme activities have been determined in the presence of Ajuga reptans extracts, teupolioside, isoteupolioside and Serenoa repens extracts.
Determination of the type II 5 alpha reductase activity has been performed in an analogous manner to that just described, with the exception of a different pH value for the 0.1 M Tris-citrate buffer (pH 5.0).
In both assays, the steroids have been extracted using 5 ml of methylene chloride. The extracts have then been dried under a stream of nitrogen and the dried residues obtained have been dissolved in 20 μl of a chloroform-methanol mixture (2:1 v/v). An aliquot of said mixture has been deposited on the surface of a silica gel TLC plate. […] For quantification of the results, the spots have been scraped from the TLC plate and extracted with 2 ml of ethyl acetate. The extracts obtained have been analysed, using scintillation fluid, with the aid of a Wallach β-counter. The enzyme activity has been calculated from the percentage conversion (C %) of the substrate into final product: C%=[counted product/(counted substrate+product)]×100.

The subject of another assay is tyrosinase. The assay can be described thus: Tyrosinase inhibition, oxidation of L-tyrosine to L-DOPA. Format: biochemical. The conditions noted are these: 250 μg/ml. The source says: The enzyme tyrosinase catalyses the reactions leading to melanin biosynthesis from tyrosine. […] Substances inhibiting tyrosinase activity produce a clearing/bleaching effect on the skin, since they block melanin synthesis. The method used to determine the inhibition of tyrosinase activity in the oxidation reaction of L-tyrosine to L-DOPA is that described in Kim et al. […] Biol. Pharm. […] The method applied for determination of the inhibition of tyrosinase activity in the conversion of L-DOPA to DOPAquinone is that described in Masamoto et al. (Mushroom tyrosinase inhibitory activity of esculetin isolated from seeds of Euphorbia lathyris L. Biosci. Biotechnol. Biochem., 67(3), 631-634, 2003).

The test system of assay [3] is Candida albicans ATCC 2091. The assay is described as follows: Multiple dilution assay, growth in culture broth. Type of assay: cell-based. The conditions noted are these: for T0 (CFU/ml) / T7d (CFU/ml) / T14d (CFU/ml) / T21d (CFU/ml) / T28d (CFU/ml): 30° C.; for T7d (CFU/ml): 7 days; for T14d (CFU/ml): 14 days; for T21d (CFU/ml): 21 days; for T28d (CFU/ml): 28 days. As for the experimental part:
(§1) To the purpose of detecting any antimicrobial activity of the Ajuga reptans extract and the individual phenylpropanoid isoteupoloside (FPD) and teupolioside (FPA), an assay has been prepared, generally known as multiple dilution assay, with the following microbial strains: Pseudomonas aeruginosa ATCC 9027; Candida albicans ATCC 2091. The phenylpropanoids FPD, FPA and the Extract 2 of Ajuga reptans were assayed at the concentrations of 0.5 mg/ml, 2 mg/ml and 5 mg/ml. The microbial strains for the test were inoculated in culture broths (in Triptone soy broth medium) containing the substances to be assayed at the concentrations described above. In parallel with these tests, culture broths containing the microbial strain alone have been prepared (controls). The culture-broths have been incubated at 30° C. for a period of 28 days. […] A certain number of serial dilutions have been prepared for each sample in order to determine the microbial load of each culture-broth. Each dilution has been assayed in triplicate on solid medium. Then number of CFUs reported in the table is the mean of the counts performed on the triplicate assays.

Assay [4] has as its system Pseudomonas aeruginosa ATCC 9027. The assay can be described thus: Multiple dilution assay, growth in culture broth. Type of assay: cell-based. The conditions noted are these: for T0 (CFU/ml) / T7d (CFU/ml) / T14d (CFU/ml) / T21d (CFU/ml) / T28d (CFU/ml): 30° C.; for T7d (CFU/ml): 7 days; for T14d (CFU/ml): 14 days; for T21d (CFU/ml): 21 days; for T28d (CFU/ml): 28 days. Here is the method: as §1

Structures are written as SMILES. Like-named read-outs stand apart in the source and are kept apart here.

What is called IC50 is the concentration that inhibits the measured activity by half. Consider `CC1OC(OC2C(O)C(COC(=O)C=Cc3ccc(O)c(O)c3)OC(OCCc3ccc(O)c(O)c3)C2O)C(OC2OC(CO)C(O)C(O)C2O)C(O)C1O` (centres unmarked) [Isoteupolioside, isoteupolioside], for which the “Fe^2+ (Keq, M^−1)” value in assay [1] was 340000 ± 10000 M⁻¹. Inhibition in assay [2] was half-maximal at 33 µM (IC50). The “Test L-tyrosine-DOPA inhibitory activity (%)” value with tyrosinase was determined as 30.9%. Also, in assay [3] (0.5 mg/ml), the “T0 (CFU/ml)” value is listed as 9.7 × 10^5 CFU/ml, the “T7d (CFU/ml)” value is recorded as 1.7 × 10^6 CFU/ml, the “T14d (CFU/ml)” value is listed as 5.8 × 10^5 CFU/ml and the “T21d (CFU/ml)” value is listed as 7.3 × 10^7 CFU/ml. Also, the “T28d (CFU/ml)” value in assay [3] (0.5 mg/ml) was 6.5 × 10^7 CFU/ml. In assay [3] (2 mg/ml), the “T0 (CFU/ml)” value is listed as 9.1 × 10^5 CFU/ml, the “T7d (CFU/ml)” value is recorded as 1.1 × 10^6 CFU/ml, the “T14d (CFU/ml)” value is on record as 2.3 × 10^6 CFU/ml and the “T21d (CFU/ml)” value is recorded as 1.2 × 10^5 CFU/ml. The “T28d (CFU/ml)” value in assay [3] (2 mg/ml) was 3.8 × 10^3 CFU/ml. In addition, in assay [3] (5 mg/ml), the “Inhibiting action on the growth of Candida albicans ATCC 2091, in words” value is given as “significant inhibiting action”; the “T0 (CFU/ml)” value was 8.1 × 10^5 CFU/ml; the “T7d (CFU/ml)” value is 3.1 × 10^5 CFU/ml; the “T14d (CFU/ml)” value was 8.5 × 10^3 CFU/ml. Further, in assay [3] (5 mg/ml), the “T21d (CFU/ml)” value was 5 × 10^1 CFU/ml. Further, in assay [4] (0.5 mg/ml), the “T0 (CFU/ml)” value was 9.6 × 10^5 CFU/ml, the “T7d (CFU/ml)” value is 1.2 × 10^6 CFU/ml, the “T14d (CFU/ml)” value is recorded as 2.1 × 10^7 CFU/ml and the “T21d (CFU/ml)” value is on record as 2.4 × 10^4 CFU/ml. Moreover, the “T28d (CFU/ml)” value in assay [4] (0.5 mg/ml) is reported as 9.8 × 10^3 CFU/ml. In assay [4] (2 mg/ml), the “T0 (CFU/ml)” value is listed as 5.9 × 10^5 CFU/ml, the “T7d (CFU/ml)” value is reported as 1.1 × 10^6 CFU/ml, the “T14d (CFU/ml)” value is recorded as 1.9 × 10^6 CFU/ml and the “T21d (CFU/ml)” value is on record as 9.2 × 10^3 CFU/ml. Besides, the “T28d (CFU/ml)” value in assay [4] (2 mg/ml) is on record as 9.8 × 10^3 CFU/ml. Besides, in assay [4] (5 mg/ml), the “Inhibiting action on the growth of Pseudomonas aeruginosa ATCC 9027, in words” value is on record as “significant inhibiting action”; the “T0 (CFU/ml)” value was 3.6 × 10^5 CFU/ml; the “T7d (CFU/ml)” value is on record as 9.8 × 10^5 CFU/ml; the “T14d (CFU/ml)” value is recorded as 1.1 × 10^5 CFU/ml. Further, in assay [4] (5 mg/ml), the “T21d (CFU/ml)” value is 2.5 × 10^3 CFU/ml and the “T28d (CFU/ml)” value is listed as 9 × 10^1 CFU/ml.
With `C[C@@H]1O[C@@H](O[C@@H]2[C@@H](O)[C@H](OCCc3ccc(O)c(O)c3)O[C@H](CO)[C@H]2OC(=O)/C=C/c2ccc(O)c(O)c2)[C@H](O[C@@H]2O[C@H](CO)[C@H](O)[C@H](O)[C@H]2O)[C@H](O)[C@H]1O` [Teupolioside, teupolioside], the “Fe^2+ (Keq, M^−1)” value in assay [1] (calculated for a pure phenylpropanoid) is 350000 ± 20000 M⁻¹. In addition, the half-inhibitory concentration (IC50) in assay [2] (second column of Table 9, pH 5.0, 5 μM testosterone, read-out: Type II 5 alpha reductase inhibition (IC50) (converted)) is 30.5 µM. Moreover, the “Test L-tyrosine-DOPA inhibitory activity (%)” value in the assay on tyrosinase is listed as 29.6%. Moreover, in assay [3], the “Anti-microbial activity on Candida albicans ATCC 2091, comparison in words” value was “activity similar to isoteupolioside”. For the same compound, the “Inhibiting action on the growth of Candida albicans ATCC 2091, in words” value in assay [3] (5 mg/ml) is “significant inhibiting action”. Further, the “Anti-microbial activity on Pseudomonas aeruginosa ATCC 9027, comparison in words” value in assay [4] was “activity similar to isoteupolioside”. In addition, the “Inhibiting action on the growth of Pseudomonas aeruginosa ATCC 9027, in words” value in assay [4] (5 mg/ml) is “significant inhibiting action”.
